# Measured values taken from patent publication US8222236B2, “2-methylene-(20E)-20(22)-dehydro-19-nor-vitamin D analogs” (Wisconsin Alumni Research Foundation, priority 2008, dated 2012).
# Entries after “also recorded” stand apart in the source; their conditions may differ.
# Columns and labels:
# HL-60 cells = test: HL-60 cell differentiation (nitro blue tetrazolium reduction); type: cell-based, human; settings: FIG. 2; for EC50: HL-60 cells, 4 days
# Experimental: The study drugs were dissolved in ethanol and the concentrations determined using UV spectrophotometry. Serial dilutions were prepared so that a range of drug concentrations could be tested without changing the final concentration of ethanol (≦0.2%) present in the cell cultures.
# Human promyelocytic leukemia (HL60) cells were grown in RPMI-1640 medium containing 10% fetal bovine serum. The cells were incubated at 37° C. in the presence of 5% CO2.
# HL60 cells were plated at 1.2×10^5 cells/ml. Eighteen hours after plating, cells in duplicate were treated with drug. Four days later, the cells were harvested and a nitro blue tetrazolium reduction assay was performed (Collins et al., 1979; J. Exp. Med. 149:969-974). The percentage of differentiated cells was determined by counting a total of 200 cells and recording the number that contained intracellular black-blue formazan deposits. Verification of differentiation to monocytic cells was determined by measuring phagocytic activity (data not shown).
# [1] = test system: bone calcium mobilization; test: Bone calcium mobilization (serum calcium) in vitamin D-deficient rats; type: in vivo, rat; settings: 0.02% Ca diet, FIG. 4
# Experimental: (§1) Male, weanling Sprague-Dawley rats were placed on Diet 11 (0.47% Ca) diet +AEK oil for one week followed by Diet 11 (0.02% Ca) +AEK oil for 3 weeks. The rats were then switched to a diet containing 0.47% Ca for one week followed by two weeks on a diet containing 0.02% Ca. Dose administration began during the last week on 0.02% calcium diet. Four consecutive ip doses were given approximately 24 hours apart. Twenty-four hours after the last dose, blood was collected from the severed neck and the concentration of serum calcium determined as a measure of bone calcium mobilization. The first 10 cm of the intestine was also collected for intestinal calcium transport analysis using the everted gut sac method.
# [2] = test system: intestinal calcium transport; test: Intestinal calcium transport, everted gut sac method, vitamin D-deficient rats; type: in vivo, rat; settings: FIG. 5; for intestinal calcium transport at 260 pmol/day, in words: ip, 4 consecutive days
# Experimental: as §1
# [3] = target: T1, full-length recombinant rat vitamin D receptor (Rattus norvegicus, UniProt P13053); test: Vitamin D receptor competitive binding with [3H]-1,25(OH)2D3; settings: FIG. 1
# T1 construct: Full-length recombinant rat receptor was expressed in E. coli BL21 (DE3) Codon Plus RIL cells; histidine tag (C); made in house; host or cells: E. coli BL21 (DE3) Codon Plus RIL
# T1 sequence (P13053 1-423): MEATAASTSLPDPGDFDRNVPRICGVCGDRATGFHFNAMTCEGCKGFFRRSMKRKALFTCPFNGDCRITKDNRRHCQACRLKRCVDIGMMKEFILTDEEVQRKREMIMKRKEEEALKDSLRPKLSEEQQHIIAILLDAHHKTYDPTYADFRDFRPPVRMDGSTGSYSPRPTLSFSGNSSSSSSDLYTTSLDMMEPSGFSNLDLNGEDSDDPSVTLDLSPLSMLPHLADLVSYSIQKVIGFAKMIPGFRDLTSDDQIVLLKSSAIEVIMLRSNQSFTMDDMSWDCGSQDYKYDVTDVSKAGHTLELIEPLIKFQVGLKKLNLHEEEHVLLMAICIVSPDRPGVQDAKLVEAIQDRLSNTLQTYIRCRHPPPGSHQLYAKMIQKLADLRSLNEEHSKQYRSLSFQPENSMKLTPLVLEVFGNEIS
# Experimental: Full-length recombinant rat receptor was expressed in E. coli BL21 (DE3) Codon Plus RIL cells and purified to homogeneity using two different column chromatography systems. The first system was a nickel affinity resin that utilizes the C-terminal histidine tag on this protein. The protein that was eluted from this resin was further purified using ion exchange chromatography (S-Sepharose Fast Flow). Aliquots of the purified protein were quick frozen in liquid nitrogen and stored at −80° C. until use. For use in binding assays, the protein was diluted in TEDK50 (50 mM Tris, 1.5 mM EDTA, pH7.4, 5 mM DTT, 150 mM KCl) with 0.1% Chaps detergent. The receptor protein and ligand concentration were optimized such that no more than 20% of the added radiolabeled ligand was bound to the receptor.
# Radiolabeled and unlabeled ligands were added to 100 mcl of the diluted protein at a final ethanol concentration of ≦10%, mixed and incubated overnight on ice to reach binding equilibrium. The following day, 100 mcl of hydroxylapatite slurry (50%) was added to each tube and mixed at 10-minute intervals for 30 minutes. The hydroxylapaptite was collected by centrifugation and then washed three times with Tris-EDTA buffer (50 mM Tris, 1.5 mM EDTA, pH 7.4) containing 0.5% Titron X-100. […] Total binding was determined from the tubes containing only radiolabeled ligand.
# [4] = test system: 24-hydroxylase (24Ohase) gene promoter; test: In vitro transcription assay, 24-hydroxylase gene promoter luciferase reporter in ROS 17/2.8 (bone) cells; type: cell-based; settings: ROS 17/2.8 cells, 24-hydroxylase promoter-luciferase, 16 hours; FIG. 3; read-out: EC50, transcriptional activity in bone cells
# Experimental: Transcription activity was measured in ROS 17/2.8 (bone) cells that were stably transfected with a 24-hydroxylase (24Ohase) gene promoter upstream of a luciferase reporter gene (Arbour et al., 1998). Cells were given a range of doses. Sixteen hours after dosing the cells were harvested and luciferase activities were measured using a luminometer.
# RLU=relative luciferase units.
Compound,EC50 (HL-60 cells) [nM],"bone calcium mobilization activity (serum calcium), in words [1]","dose giving the same mobilization of bone calcium ([1]; ip, 4 consecutive days) [pmol/day]","intestinal calcium transport at 260 pmol/day, in words [2]","VDR binding affinity compared to 1,25(OH)2D3 [3]","Ki ([3]; full-length recombinant rat VDR, read-out: Ki, competition with [3H]-1,25(OH)2D3 for binding to the vitamin D receptor) [nM]","potency on HL-60 cell differentiation relative to 1,25(OH)2D3 (HL-60 cells) [times]","EC50 (HL-60 cells; Homo sapiens, 96 h) [nM]",EC50 [4] [nM],"dose at which any substantial effect on bone calcium mobilization was seen ([1]; ip, 4 consecutive days) [pmol/day]","intestinal calcium transport activity, in words ([2]; vitamin D-deficient rats)"
"C=C1/C(=C\C=C2/CCC[C@]3(C)[C@@H]([C@H](C)CCCC(C)(C)O)CC[C@@H]23)C[C@@H](O)C[C@@H]1O [1,25(OH)2D3, 1α,25-dihydroxyvitamin D3, reference compound]",2,increased serum calcium levels at all dosages,87,significant increase,,,,,,,
"C=C1[C@H](O)CC(=C/C=C2\CCC[C@]3(C)[C@@H](/C(C)=C/CCC(C)(C)O)CC[C@@H]23)C[C@H]1O [Vit III 20-22E, 2-methylene-(20E)-20(22)-dehydro-19-nor-1α,25-dihydroxyvitamin D3]",,"less bone calcium mobilization activity; also recorded: relatively low, or little, activity in mobilizing calcium from bone",780,promotes intestinal calcium transport,bound with the same affinity,0.1,3 to 4,0.8,0.02,7020,"about the same activity; also recorded: about the same as or equal to 1,25(OH)2D3"
